Reference: US20110250184A1, “METHODS FOR DETERMINING EFFICACY OF A THERAPEUTIC REGIMEN AGAINST DELETERIOUS EFFECTS OF CYTOTOXIC AGENTS IN HUMAN” (priority 2008, published 2011)
Entries after “also recorded” stand apart in the source; their conditions may differ.

Tests used:
human skin fibroblasts = assay: In vitro clonogenic survival assay, skin fibroblasts; type: cell-based
[1] = tested on: New Zealand white rabbits; assay: Survival studies in rabbits after lethal doses of radiation; type: in vivo; details: 120 mg/kg at 24 hours and 15 minutes before lethal doses of radiation
Procedure: (§1) Unlike in the mouse studies, clear evidence of improved repopulation of various hematologic cell lineages was not evident in these preliminary studies. Both solution and suspension formulations were tested.

DNA damage = assay: Comet assay, DNA damage caused by irradiation of cells; type: cell-based
[2] = tested on: 67 radioligand receptor binding assays; assay: Panel of 67 radioligand receptor binding assays; details: in vitro primary screening
Procedure: Additional biochemical studies were performed to screen for potential secondary or non-specific activities. ON 01210.Na was subjected to in vitro primary screening across a broad panel of 67 radioligand receptor binding assays and five cytochrome P450 enzymes: 1A2, 2C9, 2C19, 3A4, and 2D6. […] Only one cytochrome assay, CYP450 2C9, in which the activity was […] 98%, yielded a response that was considered significant. Thus, as a preliminary screen for safety and selectivity profiling, no targets were identified.

[3] = tested on: HFL-1 (normal diploid lung fibroblasts) cells; assay: Clonogenic assay, radioprotection of HFL-1 cells against ionizing radiation; type: cell-based, human
Text: FIG. 1. Protection of HFL-1 cells against Ionizing Radiation (IR) by ON 01210.Na. Following drug treatment and radiation exposure, cells were re-plated and the number of colonies from each plate was enumerated three weeks later. A. Relation of concentration of ON 01210.Na to number of surviving colonies. B. Stained clonogenic assay plates.
A clonogenic assay was used to measure radioprotection of ON 01210.Na on cultured human cells. Treatment of HFL-1 (normal diploid lung fibroblasts) cells with 2-20 μM of ON 01210.Na for 24 hours prior to cytotoxic levels of Ionizing Radiation (IR) (10 Gy) provided 3.3-4.7 fold protection in a dose-dependent manner (see FIG. 1A).HFL-1 cells, were treated with ON 01210.Na at final concentrations ranging from 2.0 to 20.0 μM. In a second experiment, cells were also treated with the drug for 24 h, but the drug was applied 4 h after irradiation.
Following drug treatment and radiation exposure, cells were re-plated and the number of colonies from each plate was enumerated three weeks later. A. Relation of concentration of ON 01210.Na to number of surviving colonies. B. Stained clonogenic assay plates.

[4] = tested on: white blood cells, platelets, hematocrit and hemoglobin levels; assay: Hematology in irradiated rabbits; type: in vivo, New Zealand white rabbits
Procedure: as §1

cells = type: cell-based
jejunal crypt stem cells = assay: Gastrointestinal tissue damage in irradiated mice; type: in vivo; details: pretreated prior to irradiation
white blood cells = assay: White blood cell counts of irradiated mice; type: in vivo, C3H/HEJ mice
Procedure: FIG. 4. ON 01210.Na protects the bone marrow of irradiated mice. A. Mice were injected with 500 mg/kg of ON 01210.Na formulated in 1% Polysorbate 80/K-phosphate buffer or vehicle alone by sc injections minus 24 hrs and minus 15 minutes before 5.5 Gy of whole body ionizing radiation treatment. Whole blood was collected on the indicted days and WBC counts were performed following RBC lysis. The data is plotted as the average of three mice per group +/−SEM (N:3×3=9 plates). B. Pictures of representative plates. […] C. White blood cell counts. Whole blood was collected on the indicted days and WBC counts were performed following RBC lysis. The data is plotted as the average of 3 mice per group±SEM (N=3).
A. Mice were injected with 500 mg/kg of ON 01210.Na formulated in 1% Polysorbate 80/K-phosphate buffer or vehicle alone by sc injections minus 24 hrs and minus 15 minutes before 5.5 Gy of whole body ionizing radiation treatment. Whole blood was collected on the indicted days and WBC counts were performed following RBC lysis. The data is plotted as the average of three mice per group+/−SEM (N:3×3=9 plates). […]
In addition to examining the ability of ON 01210.Na to protect bone marrow cells, the protection of peripheral white blood cells was also examined. Whole blood was collected and the total number of white blood cells was determined at various times after radiation exposure.

[5] = tested on: human umbilical vein endothelial cells; assay: In vitro clonogenic survival assay, endothelial cells; type: cell-based
human bone marrow cells [6] = assay: In vitro radiation protection of human bone marrow cells (methocult CFU); type: cell-based; details: 3 hour treatment, no radiation, all concentrations tested; sodium salt
[7] = Free radical scavenger / antioxidant activity
human bone marrow cells [8] = assay: In vitro radiation protection of human bone marrow cells (methocult CFU); type: cell-based
Procedure: FIG. 3. In vitro radiation protection of human bone marrow cells. Human bone marrow cells were treated with increasing concentrations of ON 01210.Na for 3 hours, and then irradiated with increasing doses of ionizing radiation. The cells were plated into methocult and the total number of CFUs was determined 14 days later.
Radiation protection assays were then performed (FIG. 3). Cells were treated with ON 01210.Na for 3 hours, irradiated, and plated in methocult. The total number of colony forming units was determined 14 days later. […] This compared very favorably when analyzed against protection studies using amifostine as a positive control.
Human bone marrow cells were treated with increasing concentrations of ON 01210.Na for 3 hours, and then irradiated with increasing doses of ionizing radiation. The cells were plated into methocult and the total number of CFUs was determined 14 days later.
When we plotted the survival curve at the optimal concentration of ON 01210.Na (FIG. 3C) we were able to calculate a dose reduction factor (DRF) of 1.6. We also tested the radiation protection activity of amifostine. Amifostine concentrations were selected that closely mimicked the therapeutic plasma concentrations. […] The calculated DRF value of 1.5 was determined from these experiments.

O=C([O-])c1ccc(/C=C/S(=O)(=O)Cc2ccc(Cl)cc2)cc1.[Na+] [ON 01210.Na, E-4-Carboxystyryl-4-chlorobenzylsulfone sodium salt]
protection from radiation exposure (clonogenic survival) (human skin fibroblasts): protected
survival relative to vehicle-treated animals [1]: survival benefit
DNA damage caused by irradiation (Comet assays) (DNA damage): reduced the amount of DNA damage
inhibition or stimulation of receptor binding [2]: No significant inhibition or stimulation
fold protection (surviving colonies) ([3]; 2-20 μM for 24 hours prior to 10 Gy IR, dose-dependent): 3.3-4.7 fold
number of cells per colony ([3]; ON 01210.Na treated group after IR): significant larger
protection from radiation exposure (clonogenic survival) ([3]; human lung fibroblasts): protected
protection when cells treated post irradiation ([3]; treated four hours post irradiation exposure, 24 h): significant protection
white blood cells, platelets, hematocrit and hemoglobin levels ([4]; 120 mg/kg at 24 hours and 15 minutes before lethal radiation): general protective trend
improved repopulation of hematologic cell lineages ([4]; preliminary studies): not evident
cell cycle arrest (cells): did not cause cell cycle arrest
cytotoxicity (cells): not cytotoxic
damage to the jejunal crypt stem cells (jejunal crypt stem cells): significantly less damage
protection of white blood cells from radiation exposure (white blood cells; 500 mg/kg sc -24 h and -15 min before 5.5 Gy IR, sodium salt): significantly protected
recovery of white cell numbers (white blood cells; by 18 days): more rapid recovery
protection from radiation exposure (clonogenic survival) [5]: protected
toxicity of treatment without radiation (human bone marrow cells [6]): non-toxic at all concentrations tested; also recorded: completely safe
activity as a free radical scavenger or antioxidant [7]: did not exhibit any significant activity
range of concentrations that protected cells (human bone marrow cells [8]): 10 fold
optimal concentration for radiation protection (human bone marrow cells [8]; 3 hours treatment): 10 µM
radiation protection of human bone marrow cells (human bone marrow cells [8]; 3 hours treatment before irradiation, sodium salt): protect human bone marrow cells in a dose dependent manner; also recorded: protected human bone marrow cells in a dose responsive manner; also recorded: very effective; also recorded: reproducibly protect
dose reduction factor (DRF) (human bone marrow cells [8]; ON 01210.Na 10 μM (optimal), 3 hours before irradiation): 1.6
